Experimental data reported in US12006321B2, “Substituted pyrazolo[1,5-a]pyrimidines as apelin receptor agonists” (Sanford Burnham Prebys Medical Discovery Institute, priority 2017, dated 2024).

These molecules were tested against T1, human apelin receptor (APJ, APLNR) (Homo sapiens, UniProt P35414) (assay: cell-based cAMP assay (TR-FRET) in Chinese hamster ovary cells expressing the apelin receptor). Conditions: EC50 = 50% of control (apelin-13, 1 nM) response; cAMP in CHO cells, 0.5 h incubation; read-out: Potency Category.
T1 construct: host or cells: Chinese hamster ovary (CHO) cells, stably integrated receptor
T1 sequence (P35414 1-380): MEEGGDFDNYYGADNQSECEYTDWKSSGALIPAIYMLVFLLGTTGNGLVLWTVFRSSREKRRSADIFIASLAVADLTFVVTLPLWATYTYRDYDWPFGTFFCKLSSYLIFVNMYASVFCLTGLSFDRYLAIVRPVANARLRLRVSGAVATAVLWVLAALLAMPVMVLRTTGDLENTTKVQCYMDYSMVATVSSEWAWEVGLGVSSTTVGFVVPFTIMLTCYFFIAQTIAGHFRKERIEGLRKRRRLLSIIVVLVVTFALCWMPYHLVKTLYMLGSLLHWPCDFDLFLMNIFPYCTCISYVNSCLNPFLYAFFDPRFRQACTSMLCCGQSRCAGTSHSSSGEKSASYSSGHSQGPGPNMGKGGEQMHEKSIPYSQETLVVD
Method in brief: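 CHO cells stably expressing human APJ were forskolin-stimulated, then exposed to compound (0.0-100 μM, ≤1% DMSO) for 0.5 h. Lysate cAMP read by competitive TR-FRET immunoassay; EC50 and efficacy expressed relative to 1 nM apelin-13, four-parameter fit over ≥10 concentrations.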

| EC50 [nM] | SMILES |
| --- | --- |
| > 500 | Cc1cccc(C)c1-c1c(C)nn2c(-c3ccncc3)cc(C(=O)O)nc12 [Compound 126, 3-(2,6-dimethylphenyl)-2-methyl-7-(4-pyridyl)-8-hydropyrazolo[1,5-a]pyrimidine-5-carboxylic acid] |
| > 500 | Cc1cccc(C)c1-c1c(C)nn2c(C3=CCCC3)cc(C(=O)O)nc12 [Compound 127, 3-(2,6-dimethylphenyl)-7-cyclopent-1-enyl-2-methyl-8-hydropyrazolo[1,5-a]pyrimidine-5-carboxylic acid] |
| < 100 | Cc1cccc(CO)c1-c1c(C)nn2c(C(C)C)cc(C(=O)O)nc12 [Compound 128, 3-[6-(hydroxymethyl)-2-methylphenyl]-2-methyl-7-(methylethyl)-8-hydropyrazolo[1,5-a]pyrimidine-5-carboxylic acid] |
| > 500 | CCOC(=O)c1cc(C(C)C)n2nc(C)c(-c3c(C)cccc3Br)c2n1 [Compound 129, ethyl 3-(2-bromo-6-methylphenyl)-2-methyl-7-(methylethyl)-8-hydropyrazolo[1,5-a]pyrimidine-5-carboxylate] |
| 200 to 500 | Cc1cccc(Br)c1-c1c(C)nn2c(C(C)C)cc(C(=O)O)nc12 [Compound 130, 3-(2-bromo-6-methylphenyl)-2-methyl-7-(methylethyl)-8-hydropyrazolo[1,5-a]pyrimidine-5-carboxylic acid] |
| < 100 | COCc1cccc(C)c1-c1c(C)nn2c(C(C)C)cc(C(=O)O)nc12 [Compound 131, 3-[6-(methoxymethyl)-2-methylphenyl]-2-methyl-7-(methylethyl)-8-hydropyrazolo[1,5-a]pyrimidine-5-carboxylic acid] |
| > 500 | COC(=O)c1cc(Nc2ccc(F)cc2)n2nc(C)c(-c3c(C)cccc3C)c2n1 [Compound 132, methyl 3-(2,6-dimethylphenyl)-7-[(4-fluorophenyl)amino]-2-methyl-8-hydropyrazolo[1,5-a]pyrimidine-5-carboxylate] |
| > 500 | COC(=O)c1cc(Nc2ccc(Cl)cc2)n2nc(C)c(-c3c(C)cccc3C)c2n1 [Compound 133, methyl 3-(2,6-dimethylphenyl)-7-[(4-chlorophenyl)amino]-2-methyl-8-hydropyrazolo[1,5-a]pyrimidine-5-carboxylate] |
| > 500 | COC(=O)c1cc(Nc2ccc(C)cc2)n2nc(C)c(-c3c(C)cccc3C)c2n1 [Compound 134, methyl 3-(2,6-dimethylphenyl)-2-methyl-7-[(4-methylphenyl)amino]-8-hydropyrazolo[1,5-a]pyrimidine-5-carboxylate] |
| > 500 | COC(=O)c1cc(Nc2ccc(OC)cc2)n2nc(C)c(-c3c(C)cccc3C)c2n1 [Compound 135, methyl 3-(2,6-dimethylphenyl)-7-[(4-methoxyphenyl)amino]-2-methyl-8-hydropyrazolo[1,5-a]pyrimidine-5-carboxylate] |
| > 500 | COC(=O)c1cc(Nc2ccc(C(F)(F)F)cc2)n2nc(C)c(-c3c(C)cccc3C)c2n1 [Compound 136, methyl 3-(2,6-dimethylphenyl)-2-methyl-7-{[4-(trifluoromethyl)phenyl]amino}-8-hydropyrazolo[1,5-a]pyrimidine-5-carboxylate] |
| > 500 | COC(=O)c1cc(Nc2ccc(OC(F)(F)F)cc2)n2nc(C)c(-c3c(C)cccc3C)c2n1 [Compound 137, methyl 3-(2,6-dimethylphenyl)-2-methyl-7-{[4-(trifluoromethoxy)phenyl]amino}-8-hydropyrazolo[1,5-a]pyrimidine-5-carboxylate] |
| > 500 | COC(=O)c1cc(Nc2ccc(C#N)cc2)n2nc(C)c(-c3c(C)cccc3C)c2n1 [Compound 138, methyl 3-(2,6-dimethylphenyl)-7-[(4-cyanophenyl)amino]-2-methyl-8-hydropyrazolo[1,5-a]pyrimidine-5-carboxylate] |
| > 500 | Cc1cccc(C)c1-c1c(C)nn2c(Nc3ccc(F)cc3)cc(C(=O)O)nc12 [Compound 139, 3-(2,6-dimethylphenyl)-7-[(4-fluorophenyl)amino]-2-methyl-8-hydropyrazolo[1,5-a]pyrimidine-5-carboxylic acid] |
| > 500 | Cc1cccc(C)c1-c1c(C)nn2c(Nc3ccc(Cl)cc3)cc(C(=O)O)nc12 [Compound 140, 3-(2,6-dimethylphenyl)-7-[(4-chlorophenyl)amino]-2-methyl-8-hydropyrazolo[1,5-a]pyrimidine-5-carboxylic acid] |
| > 500 | Cc1ccc(Nc2cc(C(=O)O)nc3c(-c4c(C)cccc4C)c(C)nn23)cc1 [Compound 141, 3-(2,6-dimethylphenyl)-2-methyl-7-[(4-methylphenyl)amino]-8-hydropyrazolo[1,5-a]pyrimidine-5-carboxylic acid] |

| EC50 [nM] | SMILES |
| --- | --- |
| > 500 | COc1ccc(Nc2cc(C(=O)O)nc3c(-c4c(C)cccc4C)c(C)nn23)cc1 [Compound 142, 3-(2,6-dimethylphenyl)-7-[(4-methoxyphenyl)amino]-2-methyl-8-hydropyrazolo[1,5-a]pyrimidine-5-carboxylic acid] |
| > 500 | Cc1cccc(C)c1-c1c(C)nn2c(Nc3ccc(C(F)(F)F)cc3)cc(C(=O)O)nc12 [Compound 143, 3-(2,6-dimethylphenyl)-2-methyl-7-{[4-(trifluoromethyl)phenyl]amino}-8-hydropyrazolo[1,5-a]pyrimidine-5-carboxylic acid] |
| > 500 | Cc1cccc(C)c1-c1c(C)nn2c(Nc3ccc(OC(F)(F)F)cc3)cc(C(=O)O)nc12 [Compound 144, 3-(2,6-dimethylphenyl)-2-methyl-7-{[4-(trifluoromethoxy)phenyl]amino}-8-hydropyrazolo[1,5-a]pyrimidine-5-carboxylic acid] |
| > 500 | Cc1cccc(C)c1-c1c(C)nn2c(Nc3ccc(C#N)cc3)cc(C(=O)O)nc12 [Compound 145, 3-(2,6-dimethylphenyl)-7-[(4-cyanophenyl)amino]-2-methyl-8-hydropyrazolo[1,5-a]pyrimidine-5-carboxylic acid] |
| > 500 | COC(=O)c1cc(N(C)c2ccccc2)n2nc(C)c(-c3c(C)cccc3C)c2n1 [Compound 146, methyl 3-(2,6-dimethylphenyl)-2-methyl-7-(methylphenylamino)-8-hydropyrazolo[1,5-a]pyrimidine-5-carboxylate] |
| > 500 | COC(=O)c1cc(N(C)c2ccc(C)cc2)n2nc(C)c(-c3c(C)cccc3C)c2n1 [Compound 147, methyl 3-(2,6-dimethylphenyl)-2-methyl-7-[methyl(4-methylphenyl)amino]-8-hydropyrazolo[1,5-a]pyrimidine-5-carboxylate] |
| > 500 | COC(=O)c1cc(N(C)c2ccc(F)cc2)n2nc(C)c(-c3c(C)cccc3C)c2n1 [Compound 148] |
| > 500 | Cc1cccc(C)c1-c1c(C)nn2c(N(C)c3ccccc3)cc(C(=O)O)nc12 [Compound 149] |
| > 500 | Cc1ccc(N(C)c2cc(C(=O)O)nc3c(-c4c(C)cccc4C)c(C)nn23)cc1 [Compound 150, 3-(2,6-dimethylphenyl)-2-methyl-7-[methyl(4-methylphenyl)amino]-8-hydropyrazolo[1,5-a]pyrimidine-5-carboxylic acid] |
| > 500 | Cc1cccc(C)c1-c1c(C)nn2c(N(C)c3ccc(F)cc3)cc(C(=O)O)nc12 [Compound 151, 3-(2,6-dimethylphenyl)-7-[(4-fluorophenyl)methylamino]-2-methyl-8-hydropyrazolo[1,5-a]pyrimidine-5-carboxylic acid] |
| > 500 | Cc1cccc(C)c1-c1c(C)nn2c(N3CCNCC3)cc(C(=O)O)nc12 [Compound 152, 3-(2,6-dimethylphenyl)-2-methyl-7-piperazinyl-8-hydropyrazolo[1,5-a]pyrimidine-5-carboxylic acid] |
| > 500 | CCCN(C)c1cc(C(=O)O)nc2c(-c3c(C)cccc3C)c(C)nn12 [Compound 153, 3-(2,6-dimethylphenyl)-2-methyl-7-(methylpropylamino)-8-hydropyrazolo[1,5-a]pyrimidine-5-carboxylic acid] |
| > 500 | Cc1cccc(C)c1-c1c(C)nn2c(C3=CCCCC3)cc(C(=O)O)nc12 [Compound 154, 3-(2,6-dimethylphenyl)-7-cyclohex-1-enyl-2-methyl-8-hydropyrazolo[1,5-a]pyrimidine-5-carboxylic acid] |
| > 500 | Cc1cccc(C)c1-c1c(C)nn2c(C3CCCCC3)cc(C(=O)O)nc12 [Compound 155, 3-(2,6-dimethylphenyl)-7-cyclohexyl-2-methyl-8-hydropyrazolo[1,5-a]pyrimidine-5-carboxylic acid] |
| > 500 | Cc1cccc(C)c1-c1c(C)nn2c(-c3ccco3)cc(C(=O)O)nc12 [Compound 156, 3-(2,6-dimethylphenyl)-7-(2-furyl)-2-methyl-8-hydropyrazolo[1,5-a]pyrimidine-5-carboxylic acid] |
| > 500 | COC(=O)c1cc(Cl)n2nc(C)c(-c3c(C)cccc3C)c2n1 [Compound 159, methyl 3-(2,6-dimethylphenyl)-7-chloro-2-methyl-8-hydropyrazolo[1,5-a]pyrimidine-5-carboxylate] |

| SMILES | EC50 [nM] |
| --- | --- |
| Cc1cccc(C)c1-c1c(C)nn2c(C3=CCNCC3)cc(C(=O)O)nc12 [Compound 158, 3-(2,6-dimethylphenyl)-2-methyl-7-(4-1,2,5,6-tetrahydropyridyl)-8-hydropyrazolo[1,5-a]pyrimidine-5-carboxylic acid] | > 500 |
